Data: patent US6165998A, “Antifungal agents” (Scriptgen Pharmaceuticals, Inc., priority 1998, dated 2000)
Converted amounts (≈) assume the structure as drawn. “Also recorded” adds a separate entry of the source. Like-named read-outs stand apart in the source and are kept apart here.

Assays:
human Pol II = biological target: T1, human Pol II (Homo sapiens, UniProt P24928+P30876); assay: RNA polymerase II counterscreen, human pol II; assay type: biochemical
T1 construct: Pol II was isolated from Aspergillus nidulans, Saccharomyces cerevisiae, and human cells; endogenous in cells; enzyme isolated from them
Procedure: Pol II was isolated from Aspergillus nidulans, Saccharomyces cerevisiae, and human cells (FIG. 5) and used in secondary screens for fungal spectrum and specificity. Pol I and Pol III were isolated from Candida albicans and used as an additional mechanism to study specificity. Confirmed hits form the primary assay and were evaluated against this panel of polymerases. Agents with activity against Pol II from multiple fungal enzymes but not against the human counterpart were evaluated in vitro against fungal pathogens.

C. albicans [1] = assay: Frequency of resistance study, C. albicans; assay type: cell-based, Candida albicans; settings: selective concentrations 1× to 10× the MIC
Procedure: A frequency of resistance study is conducted for Compound 1 using C. albicans and S. cerevisiae, with amphotericin B as the comparator. Selective concentrations of each compound between 1× and 10× the MIC are used for each compound.

[2] = system: Candida strains resistance to ketoconazole or to amphotericin B; assay: Antifungal activity against resistant Candida strains; assay type: cell-based
[3] = biological target: T2, C. albicans RNA polymerase II (Candida albicans, UniProt A0A1D8PUA6+Q5A8Y5); assay: biochemical
T2 construct: RNA elongation assay on calf thymus DNA
T2 sequence (A0A1D8PUA6 1-1728): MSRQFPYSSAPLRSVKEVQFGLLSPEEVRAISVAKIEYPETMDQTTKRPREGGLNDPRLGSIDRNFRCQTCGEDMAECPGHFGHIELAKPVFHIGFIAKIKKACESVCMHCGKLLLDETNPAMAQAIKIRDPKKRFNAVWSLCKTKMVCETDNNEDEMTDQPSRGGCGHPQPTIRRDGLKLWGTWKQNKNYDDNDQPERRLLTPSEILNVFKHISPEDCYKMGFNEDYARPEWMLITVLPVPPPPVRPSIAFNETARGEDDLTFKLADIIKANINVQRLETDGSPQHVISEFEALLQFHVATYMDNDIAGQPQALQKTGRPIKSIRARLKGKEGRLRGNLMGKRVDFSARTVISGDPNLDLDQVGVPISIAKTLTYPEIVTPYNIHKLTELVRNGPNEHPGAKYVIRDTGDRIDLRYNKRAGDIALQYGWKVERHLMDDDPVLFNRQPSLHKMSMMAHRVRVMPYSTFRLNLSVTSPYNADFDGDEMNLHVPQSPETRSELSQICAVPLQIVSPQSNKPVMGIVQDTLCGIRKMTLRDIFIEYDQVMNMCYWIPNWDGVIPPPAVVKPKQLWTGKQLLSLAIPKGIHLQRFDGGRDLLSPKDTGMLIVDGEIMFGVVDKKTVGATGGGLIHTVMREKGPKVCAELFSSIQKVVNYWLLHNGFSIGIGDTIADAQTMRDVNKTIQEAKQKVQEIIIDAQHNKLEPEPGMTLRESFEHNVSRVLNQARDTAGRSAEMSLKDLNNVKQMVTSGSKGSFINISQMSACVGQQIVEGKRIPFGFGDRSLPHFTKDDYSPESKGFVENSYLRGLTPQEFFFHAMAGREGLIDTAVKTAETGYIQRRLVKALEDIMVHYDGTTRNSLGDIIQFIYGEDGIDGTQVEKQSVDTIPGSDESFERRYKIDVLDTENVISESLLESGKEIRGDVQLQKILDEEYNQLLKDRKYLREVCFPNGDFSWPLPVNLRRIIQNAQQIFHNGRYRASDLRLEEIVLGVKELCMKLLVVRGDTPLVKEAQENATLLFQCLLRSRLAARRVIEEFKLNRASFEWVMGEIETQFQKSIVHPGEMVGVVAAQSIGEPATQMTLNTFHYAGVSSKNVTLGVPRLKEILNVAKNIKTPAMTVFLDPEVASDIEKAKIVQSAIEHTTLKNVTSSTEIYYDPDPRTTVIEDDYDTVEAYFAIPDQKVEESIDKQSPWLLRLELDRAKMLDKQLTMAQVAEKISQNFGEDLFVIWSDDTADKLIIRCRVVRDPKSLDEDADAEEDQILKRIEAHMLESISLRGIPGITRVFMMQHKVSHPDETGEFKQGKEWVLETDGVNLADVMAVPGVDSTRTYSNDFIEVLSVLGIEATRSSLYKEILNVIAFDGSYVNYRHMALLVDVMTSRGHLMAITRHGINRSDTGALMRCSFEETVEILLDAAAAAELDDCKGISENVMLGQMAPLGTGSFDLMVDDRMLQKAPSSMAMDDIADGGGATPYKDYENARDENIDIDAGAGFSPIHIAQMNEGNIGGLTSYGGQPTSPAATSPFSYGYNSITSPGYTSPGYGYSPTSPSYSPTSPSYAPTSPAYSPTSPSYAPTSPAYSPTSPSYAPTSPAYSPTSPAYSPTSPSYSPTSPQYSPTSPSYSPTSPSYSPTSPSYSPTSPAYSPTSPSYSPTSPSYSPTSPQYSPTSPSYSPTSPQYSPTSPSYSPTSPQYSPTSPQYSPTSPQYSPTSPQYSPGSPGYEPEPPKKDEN
T2 sequence (Q5A8Y5 1-1234): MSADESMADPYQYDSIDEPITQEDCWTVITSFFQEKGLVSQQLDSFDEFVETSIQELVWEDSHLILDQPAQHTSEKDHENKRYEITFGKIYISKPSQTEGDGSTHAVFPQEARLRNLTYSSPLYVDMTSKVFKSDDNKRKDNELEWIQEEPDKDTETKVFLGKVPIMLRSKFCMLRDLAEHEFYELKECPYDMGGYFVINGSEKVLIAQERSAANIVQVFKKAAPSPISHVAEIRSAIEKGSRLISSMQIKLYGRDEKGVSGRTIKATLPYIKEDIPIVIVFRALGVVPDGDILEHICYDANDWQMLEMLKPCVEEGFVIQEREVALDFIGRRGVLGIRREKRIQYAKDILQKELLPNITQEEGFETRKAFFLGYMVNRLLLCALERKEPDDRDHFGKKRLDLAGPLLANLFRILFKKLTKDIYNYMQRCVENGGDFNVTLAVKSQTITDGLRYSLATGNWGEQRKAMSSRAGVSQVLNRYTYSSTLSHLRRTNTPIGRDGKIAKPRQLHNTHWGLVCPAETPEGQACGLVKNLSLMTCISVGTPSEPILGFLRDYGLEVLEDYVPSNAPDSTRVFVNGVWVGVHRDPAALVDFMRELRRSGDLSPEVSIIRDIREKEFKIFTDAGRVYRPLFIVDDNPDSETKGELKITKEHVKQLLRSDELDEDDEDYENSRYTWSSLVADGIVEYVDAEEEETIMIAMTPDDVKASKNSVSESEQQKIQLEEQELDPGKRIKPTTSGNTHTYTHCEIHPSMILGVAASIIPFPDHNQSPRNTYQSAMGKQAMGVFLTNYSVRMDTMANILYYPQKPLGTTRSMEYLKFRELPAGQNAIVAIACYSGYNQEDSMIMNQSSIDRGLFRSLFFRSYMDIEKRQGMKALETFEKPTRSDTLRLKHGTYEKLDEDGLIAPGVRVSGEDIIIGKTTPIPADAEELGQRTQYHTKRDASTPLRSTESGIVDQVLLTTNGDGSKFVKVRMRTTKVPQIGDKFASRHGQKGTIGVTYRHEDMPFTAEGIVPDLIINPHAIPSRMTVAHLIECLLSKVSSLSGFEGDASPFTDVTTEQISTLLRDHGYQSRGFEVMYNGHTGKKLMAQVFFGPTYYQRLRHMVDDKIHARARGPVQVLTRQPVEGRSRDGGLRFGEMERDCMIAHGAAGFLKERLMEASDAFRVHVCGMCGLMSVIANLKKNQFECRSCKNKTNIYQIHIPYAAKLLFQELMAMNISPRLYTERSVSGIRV
Procedure: The following procedure is used for cell-free high-throughput screening. A Tomtec Quadra 96-well pipetting station is used to add the reaction components to polypropylene 96-well dishes. 5 μl aliquots of test compounds dissolved in DMSO (or DMSO alone as a control) are added to wells. This is followed by 20 μl of the RNA polymerase II mixture, which consists of: 10 mM DTT, 200 mM KCl, 10 mM Mn^+2, 1.5 μM bovine serum albumin, and 0.25 μg reconstituted RNA polymerase. After allowing the test compound to interact with the RNA polymerase, 25 μl of the DNA/NTP mixture is added, containing: 1 μg calf thymus DNA, 4 μM [α-^32 P]-UTP, and 400 μM each CTP, ATP, and GTP.
After incubation for 60 min at 30 C, the reaction is stopped by addition of 50 μl 15% trichloroacetic acid (TCA). The TCA-precipitated RNA is adsorbed onto double-thick glass fiber filtermats using a Tomtec cell harvester. The wells of the microtiter plate and the filter are washed twice with 5% TCA and bound radioactivity is determined using a Wallac microbeta 1450 scintillation counter.
Inhibitory activity due to the test compound is calculated according to the formula: [formula] where cpmpositive control represents the average of the cpm in wells that received DMSO alone, and cpmsample represents the cpm in the well that received test compound. Compounds that cause at least 50% inhibition are scored as positive "hits" in this assay.
DNA-directed RNA polymerase II from Candida albicans was purified in sufficient quantity to support high throughput screening of large synthetic chemical and natural product libraries. A biochemical mechanism-based screen for detecting inhibitors of Pol II was developed and implemented. The screen is outlined in FIGS. 4A and 4B.

[4] = Compound-related toxicity in treated mice; assay type: in vivo, mouse; settings: IP or PO for 10 days at 100 mg/kg/d
Procedure: (§1) In addition, Compound 1 was efficacious in a murine model for systemic candidiasis (FIG. 10). It prolonged mean and median survival times of treated mice in the dosage range of 5 mg/kg/d to 100 mg/kg/d on aq.d., d2-11 schedule. […] The efficacy of Compound 1 was confirmed in a separate experiment using amphotericin as a control (FIG. 11). Compound 1 was also efficacious when administered orally to mice with an established systemic Candida infection (FIG. 12). […] Compound 1 is also effective against systemic candidiasis caused by a strain of C. albicans resistant to fluconazole (FIG. 13). Additional animal testing will include acute toxicity determination, route and schedule dependency in standard efficacy models, efficacy testing in immunosuppressed Candida infected mice, efficacy in an Aspergillus infection model, and pharmacokinetics following IV and oral dosing.
(§2) Compound 6 was evaluated for antifungal efficacy in a systemic candidiasis model in immunocompetent mice (FIG. 18). The compound was administered IP on a q.d., d2-11 schedule. […] 90% long term survival was seen formice treated with Compound 6 at 200/mg/kg. 30% of mice survived when treated with Compound 6 at 100 mg/kg/d. Compound 6 was also effective against systemic candidiasis when administered orally (FIG. 19) and it was effective in treating infections caused by fluconazole-resistant C. albicans.

[5] = system: C. albicans resistant to fluconazole; assay: Systemic candidiasis caused by fluconazole-resistant C. albicans; settings: mouse, in vivo
Procedure: as §1, §2

monkey kidney cells = assay: Toxicity against monkey kidney cells; assay type: cell-based
[6] = Safety assessment on target panel
Procedure: (§3) A safety assessment of Compound 1 was conducted. The compound was negative for effects in a number of CNS, cardiovascular, intermediary metabolism, allergy/inflammation and gastrointestinal targets. The compound was nontoxic when administered orally at 300 mg/kg.

[7] = system: systemic Candida infection; assay: Murine model for systemic candidiasis; assay type: in vivo, mouse
Procedure: as §1, §2

S. cerevisiae = assay: Time course of fungicidal activity, S. cerevisiae; assay type: cell-based, Saccharomyces cerevisiae
Description: (§4) Compound 1 is rapidly fungicidal.

[8] = Safety assessment, oral toxicity; assay type: in vivo; settings: orally at 300 mg/kg
Procedure: as §3

[9] = system: Trichophyton mentagrophytes; assay: Activity against human dermatophytic fungi; assay type: cell-based
fungal pathogens = assay: In vitro antifungal activity (MIC); assay type: cell-based
Fusarium culmorum = assay: MIC against plant pathogen; assay type: cell-based
C. albicans [10] = assay: Time course of fungicidal activity, C. albicans; assay type: cell-based, Candida albicans
Description: as §4

wild type C. tropicalis = assay: MIC alone and with sub-MIC amphotericin B, C. tropicalis; assay type: cell-based, Candida tropicalis
Description: (§5) This synergy was not seen in an amphotericin-resistant strain. Subsequent experiments in a 2-way titration format confirmed the synergistic activity of the combination (FIG. 18). The synergy noted between these two agents was unique among the tested antifungal compounds, and was not noted for other promising compounds identified in the high throughput screen.

[11] = system: amphotericin-resistant strain; assay: Synergy with amphotericin B in amphotericin-resistant strain; assay type: cell-based
Description: as §5

C. albicans [12] = assay: MIC alone and with sub-MIC amphotericin B, C. albicans; assay type: cell-based, Candida albicans
Description: as §5

With `Oc1ccc(N=Nc2cccc(C(F)(F)F)c2)cc1` [Compound 1, 4-[-2-[3-(trifluoromethyl)phenyl]diazenyl]-phenol] the IC50 (human Pol II) was 43 µM, the frequency of resistance (C. albicans [1]) was < 1×10^-8 and the “antifungal activity against resistant Candida strains” value [2] was “retains antifungal activity”. The “fungal Pol II inhibition” value [3] was “potent activity”, the IC50 ([3]; Table 1, read-out: IC50 Candida pol II) was 10 µM and the inhibition at 20 µM ([3]; at 20 μM, screening of azo library) was 59%. The compound related toxicity [4] was “No signs of compound related toxicity”, the “efficacy against systemic candidiasis caused by fluconazole-resistant C. albicans” value [5] was “effective” and the “toxicity against monkey kidney cells” value (monkey kidney cells) was “essentially non-toxic”. For the same molecule, the “effects in safety assessment targets” value [6] was “negative”, the “mean and median survival times of treated mice” value ([7]; 5 mg/kg/d to 100 mg/kg/d, q.d., d2-11) was “prolonged” and the “efficacy when administered orally” value ([7]; mice with an established systemic Candida infection, oral) was “efficacious”. The “recoverable colonies from the kidneys of treated animals” value ([7]; systemic candidiasis, mice) was “reduced”, the “exposure time after which no CFUs are recoverable” value (S. cerevisiae; S. cerevisiae cells) was 5 min and the “colony forming units after exposure” value (S. cerevisiae; about 10^6 S. cerevisiae cells, 25 μg/ml, 45 minutes) was “no detectable colony forming units”. For the same molecule, the “toxicity when administered orally” value [8] was “nontoxic”, the “activity against Trichophyton mentagrophytes” value [9] was “active” and the “in vitro antifungal activity / spectrum” value (fungal pathogens) was “broad spectrum in vitro activity”. The MIC (fungal pathogens; Table 1, antifungal activity, read-out: MIC) was 16.6 µg/mL (≈ 62.4 µM), the MIC (Fusarium culmorum) was 6.25 µg/mL (≈ 23.5 µM) and the “exposure time after which no CFUs are recoverable” value (C. albicans [10]; C. albicans cells) was 5 min. The “colony forming units after exposure” value (C. albicans [10]; about 10^6 C. albicans cells, 25 μg/ml, 45 minutes) was “no detectable colony forming units”.

For `CCCCN(CCO)c1ccc(N=Nc2c(Br)cc([N+](=O)[O-])cc2[N+](=O)[O-])c(C)c1` [Compound 2], the MIC (wild type C. tropicalis; alone) was 80 µg/mL, the MIC (wild type C. tropicalis; with sub-MIC amphotericin B (1/3 of the MIC)) was 1 to 2 µg/mL and the “fungal Pol II inhibition” value [3] was “potent inhibitor”. The “synergy with amphotericin B” value [11] was “not seen”, the “potency against Candida albicans in vitro” value (C. albicans [12]) was “relatively low potency” and the “synergy with amphotericin B” value (C. albicans [12]) was “act synergistically”. It also gave an MIC (C. albicans [12]; alone, ketoconazole resistant C. albicans) of 80 µg/mL, an MIC (C. albicans [12]; alone, wild type C. albicans) of 80 µg/mL and an MIC (C. albicans [12]; with sub-MIC amphotericin B (1/3 of the MIC), ketoconazole resistant C. albicans) of 1 to 2 µg/mL. For the same molecule, the MIC (C. albicans [12]; with sub-MIC amphotericin B (1/3 of the MIC), wild type C. albicans) was 1 to 2 µg/mL, the “fungicidal or fungistatic character” value (fungal pathogens) was “does not appear to be fungicidal; also recorded: fungistatic rather than fungicidal” and the MIC (fungal pathogens; in combination with amphotericin B, strain not named) was 1 to 2 µg/mL.
